Test results as given in PubChem BioAssay (NCI).
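Values below derive from 48-hour exposures of cells grown in 96-well plates, with endpoints linearly interpolated between the two concentrations bracketing the appropriate inhibition level. Definition used: TGI = concentration required for complete inhibition of growth.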 Residues, ends and D or L forms follow the SMILES beside them. *: point of attachment. Boc = CC(C)(C)OC(=O)*; OBn = c1ccc(CO*)cc1

Tested on: HOP-62 NSCLC
Assay: growth of human tumour cells (NCI), 48 h

Q: Which TGI does the source give for C=CCN1CCN([C@H](c2ccc(C(=O)N(CC)CC)cc2)c2cccc(OC)c2)CC1 here?
A: > 25 µM

Q: How did the TGI turn out when O=C1C(Cl)=C(N2C(=O)CCC2=O)C(=O)c2ccccc21 was run?
A: > 100 µM

Tested on: HOP-92 NSCLC
Assay: growth of human tumour cells (NCI), 48 h

Q: With Cc1cc(Nc2ccc(S(=O)(=O)O)cc2)c2ccccc2n1 as the compound, how does the TGI read?
A: > 100 µM

Q: How did the TGI turn out when O=c1c(-c2ccccc2)c2n(c3ccccc13)CCN2 was run?
A: > 100 µM

Q: With C=CCN1CCN([C@H](c2ccc(C(=O)N(CC)CC)cc2)c2cccc(OC)c2)CC1 as the compound, how does the TGI read?
A: > 25 µM

Q: With O=C1C(Cl)=C(N2C(=O)CCC2=O)C(=O)c2ccccc21 as the compound, how does the TGI read?
A: 26.6 µM

Q: CC(C)CC(NC(=O)OC(C)(C)C)C(=O)NC(CC(=O)OCc1ccccc1)C(N)=O (stereo not drawn) (Boc-Leu-Asp(OBn)-NH2; configuration not given here) was tested. Which TGI did it give?
A: > 100 µM

Tested on: HS 578T breast
Assay: growth of human tumour cells (NCI), 48 h

Q: For Cc1cc(Nc2ccc(S(=O)(=O)O)cc2)c2ccccc2n1, which TGI is on record?
A: > 100 µM

Q: For O=c1c(-c2ccccc2)c2n(c3ccccc13)CCN2, which TGI is on record?
A: > 100 µM

Q: C=CCN1CCN([C@H](c2ccc(C(=O)N(CC)CC)cc2)c2cccc(OC)c2)CC1 was tested. Which TGI did it give?
A: > 25 µM

Q: For O=C1C(Cl)=C(N2C(=O)CCC2=O)C(=O)c2ccccc21, which TGI is on record?
A: > 100 µM

Q: CC(C)CC(NC(=O)OC(C)(C)C)C(=O)NC(CC(=O)OCc1ccccc1)C(N)=O (stereo not drawn) (Boc-Leu-Asp(OBn)-NH2; configuration not given here) was tested. Which TGI did it give?
A: > 100 µM

Tested on: HT29 colon
Assay: growth of human tumour cells (NCI), 48 h

Q: With Cc1cc(Nc2ccc(S(=O)(=O)O)cc2)c2ccccc2n1 as the compound, how does the TGI read?
A: > 100 µM

Q: For O=c1c(-c2ccccc2)c2n(c3ccccc13)CCN2, which TGI is on record?
A: > 100 µM

Q: With C=CCN1CCN([C@H](c2ccc(C(=O)N(CC)CC)cc2)c2cccc(OC)c2)CC1 as the compound, how does the TGI read?
A: > 25 µM

Q: O=C1C(Cl)=C(N2C(=O)CCC2=O)C(=O)c2ccccc21 was tested. Which TGI did it give?
A: > 100 µM

Q: For CC(C)CC(NC(=O)OC(C)(C)C)C(=O)NC(CC(=O)OCc1ccccc1)C(N)=O (stereo not drawn) (Boc-Leu-Asp(OBn)-NH2; configuration not given here), which TGI is on record?
A: > 100 µM

Tested on: IGROV1 ovarian
Assay: growth of human tumour cells (NCI), 48 h

Q: Which TGI does the source give for Cc1cc(Nc2ccc(S(=O)(=O)O)cc2)c2ccccc2n1 here?
A: > 100 µM

Q: Which TGI does the source give for O=c1c(-c2ccccc2)c2n(c3ccccc13)CCN2 here?
A: > 100 µM

Q: With C=CCN1CCN([C@H](c2ccc(C(=O)N(CC)CC)cc2)c2cccc(OC)c2)CC1 as the compound, how does the TGI read?
A: > 25 µM

Q: O=C1C(Cl)=C(N2C(=O)CCC2=O)C(=O)c2ccccc21 was tested. Which TGI did it give?
A: > 100 µM

Q: CC(C)CC(NC(=O)OC(C)(C)C)C(=O)NC(CC(=O)OCc1ccccc1)C(N)=O (stereo not drawn) (Boc-Leu-Asp(OBn)-NH2; configuration not given here) was tested. Which TGI did it give?
A: > 100 µM

Tested on: K-562 leukemia
Assay: growth of human tumour cells (NCI), 48 h

Q: How did the TGI turn out when Cc1cc(Nc2ccc(S(=O)(=O)O)cc2)c2ccccc2n1 was run?
A: > 100 µM

Q: For O=c1c(-c2ccccc2)c2n(c3ccccc13)CCN2, which TGI is on record?
A: > 100 µM

Q: With O=C1C(Cl)=C(N2C(=O)CCC2=O)C(=O)c2ccccc21 as the compound, how does the TGI read?
A: 17.1 µM

Q: CC(C)CC(NC(=O)OC(C)(C)C)C(=O)NC(CC(=O)OCc1ccccc1)C(N)=O (stereo not drawn) (Boc-Leu-Asp(OBn)-NH2; configuration not given here) was tested. Which TGI did it give?
A: > 100 µM

Tested on: KM12 colon
Assay: growth of human tumour cells (NCI), 48 h

Q: Which TGI does the source give for Cc1cc(Nc2ccc(S(=O)(=O)O)cc2)c2ccccc2n1 here?
A: > 100 µM

Q: Which TGI does the source give for O=c1c(-c2ccccc2)c2n(c3ccccc13)CCN2 here?
A: > 100 µM

Q: With C=CCN1CCN([C@H](c2ccc(C(=O)N(CC)CC)cc2)c2cccc(OC)c2)CC1 as the compound, how does the TGI read?
A: > 25 µM

Q: How did the TGI turn out when O=C1C(Cl)=C(N2C(=O)CCC2=O)C(=O)c2ccccc21 was run?
A: > 100 µM

Q: With CC(C)CC(NC(=O)OC(C)(C)C)C(=O)NC(CC(=O)OCc1ccccc1)C(N)=O (stereo not drawn) (Boc-Leu-Asp(OBn)-NH2; configuration not given here) as the compound, how does the TGI read?
A: > 100 µM

Tested on: LOX IMVI melanoma
Assay: growth of human tumour cells (NCI), 48 h

Q: How did the TGI turn out when Cc1cc(Nc2ccc(S(=O)(=O)O)cc2)c2ccccc2n1 was run?
A: > 100 µM

Q: O=c1c(-c2ccccc2)c2n(c3ccccc13)CCN2 was tested. Which TGI did it give?
A: > 100 µM

Q: How did the TGI turn out when O=C1C(Cl)=C(N2C(=O)CCC2=O)C(=O)c2ccccc21 was run?
A: 86.4 µM

Q: CC(C)CC(NC(=O)OC(C)(C)C)C(=O)NC(CC(=O)OCc1ccccc1)C(N)=O (stereo not drawn) (Boc-Leu-Asp(OBn)-NH2; configuration not given here) was tested. Which TGI did it give?
A: > 100 µM

Tested on: M14 melanoma
Assay: growth of human tumour cells (NCI), 48 h

Q: With Cc1cc(Nc2ccc(S(=O)(=O)O)cc2)c2ccccc2n1 as the compound, how does the TGI read?
A: > 100 µM

Q: How did the TGI turn out when O=c1c(-c2ccccc2)c2n(c3ccccc13)CCN2 was run?
A: > 100 µM

Q: Which TGI does the source give for C=CCN1CCN([C@H](c2ccc(C(=O)N(CC)CC)cc2)c2cccc(OC)c2)CC1 here?
A: > 25 µM

Q: Which TGI does the source give for O=C1C(Cl)=C(N2C(=O)CCC2=O)C(=O)c2ccccc21 here?
A: > 100 µM

Q: With CC(C)CC(NC(=O)OC(C)(C)C)C(=O)NC(CC(=O)OCc1ccccc1)C(N)=O (stereo not drawn) (Boc-Leu-Asp(OBn)-NH2; configuration not given here) as the compound, how does the TGI read?
A: > 100 µM

Tested on: MALME-3M melanoma
Assay: growth of human tumour cells (NCI), 48 h

Q: With Cc1cc(Nc2ccc(S(=O)(=O)O)cc2)c2ccccc2n1 as the compound, how does the TGI read?
A: > 100 µM

Q: How did the TGI turn out when C=CCN1CCN([C@H](c2ccc(C(=O)N(CC)CC)cc2)c2cccc(OC)c2)CC1 was run?
A: > 25 µM

Q: Which TGI does the source give for CC(C)CC(NC(=O)OC(C)(C)C)C(=O)NC(CC(=O)OCc1ccccc1)C(N)=O (stereo not drawn) (Boc-Leu-Asp(OBn)-NH2; configuration not given here) here?
A: > 100 µM

Tested on: MCF7 breast
Assay: growth of human tumour cells (NCI), 48 h

Q: Cc1cc(Nc2ccc(S(=O)(=O)O)cc2)c2ccccc2n1 was tested. Which TGI did it give?
A: > 100 µM

Q: With O=c1c(-c2ccccc2)c2n(c3ccccc13)CCN2 as the compound, how does the TGI read?
A: > 100 µM

Q: How did the TGI turn out when C=CCN1CCN([C@H](c2ccc(C(=O)N(CC)CC)cc2)c2cccc(OC)c2)CC1 was run?
A: > 25 µM

Q: With O=C1C(Cl)=C(N2C(=O)CCC2=O)C(=O)c2ccccc21 as the compound, how does the TGI read?
A: 33.7 µM

Q: For CC(C)CC(NC(=O)OC(C)(C)C)C(=O)NC(CC(=O)OCc1ccccc1)C(N)=O (stereo not drawn) (Boc-Leu-Asp(OBn)-NH2; configuration not given here), which TGI is on record?
A: > 100 µM

Tested on: MDA-MB-231 breast
Assay: growth of human tumour cells (NCI), 48 h

Q: Which TGI does the source give for Cc1cc(Nc2ccc(S(=O)(=O)O)cc2)c2ccccc2n1 here?
A: > 100 µM

Q: Which TGI does the source give for O=c1c(-c2ccccc2)c2n(c3ccccc13)CCN2 here?
A: > 100 µM

Q: With C=CCN1CCN([C@H](c2ccc(C(=O)N(CC)CC)cc2)c2cccc(OC)c2)CC1 as the compound, how does the TGI read?
A: > 25 µM

Q: With O=C1C(Cl)=C(N2C(=O)CCC2=O)C(=O)c2ccccc21 as the compound, how does the TGI read?
A: > 100 µM

Q: Which TGI does the source give for CC(C)CC(NC(=O)OC(C)(C)C)C(=O)NC(CC(=O)OCc1ccccc1)C(N)=O (stereo not drawn) (Boc-Leu-Asp(OBn)-NH2; configuration not given here) here?
A: > 100 µM

Tested on: MDA-MB-435
Assay: growth of human tumour cells (NCI), 48 h

Q: For Cc1cc(Nc2ccc(S(=O)(=O)O)cc2)c2ccccc2n1, which TGI is on record?
A: > 100 µM

Q: O=c1c(-c2ccccc2)c2n(c3ccccc13)CCN2 was tested. Which TGI did it give?
A: > 100 µM

Q: For C=CCN1CCN([C@H](c2ccc(C(=O)N(CC)CC)cc2)c2cccc(OC)c2)CC1, which TGI is on record?
A: > 25 µM

Q: O=C1C(Cl)=C(N2C(=O)CCC2=O)C(=O)c2ccccc21 was tested. Which TGI did it give?
A: 44 µM

Q: For CC(C)CC(NC(=O)OC(C)(C)C)C(=O)NC(CC(=O)OCc1ccccc1)C(N)=O (stereo not drawn) (Boc-Leu-Asp(OBn)-NH2; configuration not given here), which TGI is on record?
A: > 100 µM

Tested on: MDA-N
Assay: growth of human tumour cells (NCI), 48 h

Q: How did the TGI turn out when Cc1cc(Nc2ccc(S(=O)(=O)O)cc2)c2ccccc2n1 was run?
A: > 100 µM

Q: For O=c1c(-c2ccccc2)c2n(c3ccccc13)CCN2, which TGI is on record?
A: > 100 µM

Q: How did the TGI turn out when C=CCN1CCN([C@H](c2ccc(C(=O)N(CC)CC)cc2)c2cccc(OC)c2)CC1 was run?
A: > 25 µM

Q: For O=C1C(Cl)=C(N2C(=O)CCC2=O)C(=O)c2ccccc21, which TGI is on record?
A: 35 µM

Q: With CC(C)CC(NC(=O)OC(C)(C)C)C(=O)NC(CC(=O)OCc1ccccc1)C(N)=O (stereo not drawn) (Boc-Leu-Asp(OBn)-NH2; configuration not given here) as the compound, how does the TGI read?
A: > 100 µM

Tested on: MOLT-4 leukemia
Assay: growth of human tumour cells (NCI), 48 h

Q: With Cc1cc(Nc2ccc(S(=O)(=O)O)cc2)c2ccccc2n1 as the compound, how does the TGI read?
A: > 100 µM

Q: For O=c1c(-c2ccccc2)c2n(c3ccccc13)CCN2, which TGI is on record?
A: > 100 µM

Q: C=CCN1CCN([C@H](c2ccc(C(=O)N(CC)CC)cc2)c2cccc(OC)c2)CC1 was tested. Which TGI did it give?
A: > 25 µM

Q: With O=C1C(Cl)=C(N2C(=O)CCC2=O)C(=O)c2ccccc21 as the compound, how does the TGI read?
A: > 100 µM

Tested on: NCI-H226 lung
Assay: growth of human tumour cells (NCI), 48 h

Q: For Cc1cc(Nc2ccc(S(=O)(=O)O)cc2)c2ccccc2n1, which TGI is on record?
A: > 100 µM
